# Test results reported in PubChem BioAssay AID248 (DTP/NCI, 2004).
# Where “and” joins values, the source holds several entries; their conditions need not be identical. Identical values can stand only once. Toxic doses and inconclusive results are not listed.
# Test system: L1210 leukemia ip in BDF1 mice, survival T/C
# Assay: NCI In Vivo Anticancer Drug Screen. Data for tumor model L1210 Leukemia (intraperitoneal) in B6D2F1 (BDF1) mice
# Details: endpoint: mean survival time, higher = longer survival
# Summary of the method: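 Tumor was transplanted into mice, which were then dosed with test compound or vehicle alone. Survival was recorded for each group, and the treated figure was expressed relative to the control figure.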
# [1] = dose: 100.0 mg/kg/injection, schedule: Q04DX003 (ip), vehicle: Klucel (hydroxypropylcellulose) (HPC)
# [2] = dose: 200.0 mg/kg/injection, schedule: Q04DX003 (ip), vehicle: Klucel (hydroxypropylcellulose) (HPC)
# [3] = dose: 400.0 mg/kg/injection, schedule: Q04DX003 (ip), vehicle: Klucel (hydroxypropylcellulose) (HPC)
# [4] = dose: 50.0 mg/kg/injection, schedule: Q01DX009 (ip), vehicle: Klucel (hydroxypropylcellulose) (HPC)
# [5] = dose: 100.0 mg/kg/injection, schedule: Q01DX009 (ip), vehicle: Klucel (hydroxypropylcellulose) (HPC)
# [6] = dose: 200.0 mg/kg/injection, schedule: Q01DX009 (ip), vehicle: Klucel (hydroxypropylcellulose) (HPC)
# [7] = dose: 100.0 mg/kg/injection, schedule: Q01DX001 (ip), vehicle: carboxymethylcellulose (CMC)
# [8] = dose: 200.0 mg/kg/injection, schedule: Q01DX001 (ip), vehicle: carboxymethylcellulose (CMC)
# [9] = dose: 100.0 mg/kg/injection, schedule: Q01DX009 (ip), vehicle: saline with Tween-80
# [10] = dose: 200.0 mg/kg/injection, schedule: Q01DX009 (ip), vehicle: saline with Tween-80
# [11] = dose: 100.0 mg/kg/injection, schedule: Q01DX001 (ip), vehicle: saline
# [12] = dose: 200.0 mg/kg/injection, schedule: Q01DX001 (ip), vehicle: saline
# [13] = dose: 400.0 mg/kg/injection, schedule: Q01DX001 (ip), vehicle: saline
# [14] = dose: 100.0 mg/kg/injection, schedule: Q04DX002 (ip), vehicle: Klucel (hydroxypropylcellulose) (HPC)
# [15] = dose: 200.0 mg/kg/injection, schedule: Q04DX002 (ip), vehicle: Klucel (hydroxypropylcellulose) (HPC)
# [16] = dose: 100.0 mg/kg/injection, schedule: Q01DX001 (ip), vehicle: Klucel (hydroxypropylcellulose) (HPC)
# [17] = dose: 200.0 mg/kg/injection, schedule: Q01DX001 (ip), vehicle: Klucel (hydroxypropylcellulose) (HPC)
# [18] = dose: 400.0 mg/kg/injection, schedule: Q01DX001 (ip), vehicle: Klucel (hydroxypropylcellulose) (HPC)
# [19] = dose: 400.0 mg/kg/injection, schedule: Q01DX009 (ip), vehicle: saline with Tween-80
# [20] = dose: 400.0 mg/kg/injection, schedule: Q01DX001 (ip), vehicle: carboxymethylcellulose (CMC)
compound,measurement,setting,value
CCCCCC(C)NC(=O)N(CCCl)N=O (stereo not given) (tested in a mixture with another compound),T/C,"dose: 12.0 mg/kg/injection, schedule: Q01DX001 (ip), vehicle: saline with Tween-80",109 % of control
same,T/C,"dose: 18.0 mg/kg/injection, schedule: Q01DX001 (ip), vehicle: saline with Tween-80",116 % of control
same,T/C,"dose: 27.0 mg/kg/injection, schedule: Q01DX001 (ip), vehicle: saline with Tween-80",169 % of control
same,T/C,"dose: 40.0 mg/kg/injection, schedule: Q01DX001 (ip), vehicle: saline with Tween-80",151 % of control
same,T/C,"dose: 60.0 mg/kg/injection, schedule: Q01DX001 (ip), vehicle: saline with Tween-80",200 % of control
same,T/C,"dose: 90.0 mg/kg/injection, schedule: Q01DX001 (ip), vehicle: saline with Tween-80",210 % of control
same,T/C,"dose: 133.0 mg/kg/injection, schedule: Q01DX001 (ip), vehicle: saline with Tween-80",88 % of control
Clc1ccc(OCc2sc3ccc(Br)cc3c2CN2CCc3ccccc3C2)cc1,T/C,"dose: 75.0 mg/kg/injection, schedule: Q01DX009 (ip), vehicle: Klucel (hydroxypropylcellulose) (HPC)",101 % of control
same,T/C,[1],94 % of control
same,T/C,"dose: 150.0 mg/kg/injection, schedule: Q01DX009 (ip), vehicle: Klucel (hydroxypropylcellulose) (HPC)",94 % of control
same,T/C,[2],98 % of control
same,T/C,"dose: 300.0 mg/kg/injection, schedule: Q01DX009 (ip), vehicle: Klucel (hydroxypropylcellulose) (HPC)",97 % of control
same,T/C,[3],94 % of control
CCOc1ccc(OCC)c(NC(=O)Nc2cc([N+](=O)[O-])ccc2OC)c1,T/C,[4],114 % of control
same,T/C,[5],93 % of control
same,T/C,[6],96 % of control
[Cl][Hg][c]1ccc2ccccc2c1,T/C,"dose: 6.25 mg/kg/injection, schedule: Q01DX005 (ip), vehicle: saline with Tween-80",104 % of control
same,T/C,"dose: 12.5 mg/kg/injection, schedule: Q01DX005 (ip), vehicle: saline with Tween-80",97 % of control
same,T/C,"dose: 12.5 mg/kg/injection, schedule: Q01DX009 (ip), vehicle: saline with Tween-80",92 % of control
same,T/C,"dose: 25.0 mg/kg/injection, schedule: Q01DX005 (ip), vehicle: saline with Tween-80",104 % of control
C/C=C/C(=O)Nc1ccccc1,T/C,"dose: 50.0 mg/kg/injection, schedule: Q01DX001 (ip), vehicle: carboxymethylcellulose (CMC)",97 % of control
same,T/C,[7],100 % of control
same,T/C,[8],113 % of control
O=C(CNC(=O)Nc1cccc(Cl)c1Cl)N/N=C/c1cccc([N+](=O)[O-])c1,T/C,"dose: 50.0 mg/kg/injection, schedule: Q01DX009 (ip), vehicle: saline with Tween-80",90 % of control
same,T/C,[9],96 % of control
same,T/C,[10],90 % of control
Cc1ccccc1SCCC(=O)O,T/C,[11],100 % of control
same,T/C,[5],92 % of control
same,T/C,[12],87 % of control
same,T/C,[6],96 % of control
same,T/C,[13],87 % of control
same,T/C,"dose: 400.0 mg/kg/injection, schedule: Q01DX009 (ip), vehicle: Klucel (hydroxypropylcellulose) (HPC)",94 % of control
COC(=O)c1cc2c(cc1[N+](=O)[O-])OCO2,T/C,[14],114 % of control
same,T/C,[15],114 % of control
same,T/C,"dose: 400.0 mg/kg/injection, schedule: Q04DX002 (ip), vehicle: Klucel (hydroxypropylcellulose) (HPC)",95 % of control
COC(=O)c1cccc2ccc3ccccc3c12,T/C,"dose: 75.0 mg/kg/injection, schedule: Q04DX003 (ip), vehicle: saline",97 % of control
same,T/C,"dose: 150.0 mg/kg/injection, schedule: Q04DX003 (ip), vehicle: saline",103 % of control
same,T/C,"dose: 300.0 mg/kg/injection, schedule: Q04DX003 (ip), vehicle: saline",94 % of control
CCC(CC)C(=O)NC(N)=O,T/C,[1],98 % of control
same,T/C,[2],103 % of control
same,T/C,[3],98 % of control
CCN=C(Nc1ccc(C(=NC)NCC)cc1)c1ccc(C(=NCC)Nc2ccc(C(=NC)NCC)cc2)cc1,T/C,"dose: 0.5 mg/kg/injection, schedule: Q01DX Z (ip), vehicle: saline",97 % of control
same,T/C,"dose: 0.8 mg/kg/injection, schedule: Q01DX Z (ip), vehicle: saline",97 % of control
same,T/C,"dose: 1.2 mg/kg/injection, schedule: Q01DX Z (ip), vehicle: saline",97 % of control
same,T/C,"dose: 1.77 mg/kg/injection, schedule: Q01DX Z (ip), vehicle: saline",97 % of control and 89 % of control
same,T/C,"dose: 2.66 mg/kg/injection, schedule: Q01DX Z (ip), vehicle: saline",93 % of control
same,T/C,"dose: 4.0 mg/kg/injection, schedule: Q01DX Z (ip), vehicle: saline",96 % of control
CC1CC=CCC1/C=N/NC(N)=O (stereo not given),T/C,[16],107 % of control
same,T/C,[17],104 % of control
same,T/C,[18],98 % of control
O=S(=O)(c1ccccc1)C1CC1c1ccccc1 (stereo not given),T/C,"dose: 50.0 mg/kg/injection, schedule: Q01DX009 (ip), vehicle: acetone",95 % of control
same,T/C,[11],94 % of control
same,T/C,"dose: 100.0 mg/kg/injection, schedule: Q01DX009 (ip), vehicle: acetone",93 % of control
same,T/C,"dose: 100.0 mg/kg/injection, schedule: Q04DX003 (ip), vehicle: saline",98 % of control
same,T/C,[12],102 % of control
same,T/C,"dose: 200.0 mg/kg/injection, schedule: Q01DX009 (ip), vehicle: acetone",97 % of control
same,T/C,"dose: 200.0 mg/kg/injection, schedule: Q04DX003 (ip), vehicle: saline",96 % of control
same,T/C,[13],102 % of control
same,T/C,"dose: 400.0 mg/kg/injection, schedule: Q04DX003 (ip), vehicle: saline",98 % of control
O=S(=O)(O)Cc1ccccc1O,T/C,[9],96 % of control
same,T/C,[10],102 % of control
same,T/C,[19],93 % of control
CCOC(=O)CCCC(=O)c1ccc(OC)c(OC)c1,T/C,[7],100 % of control
same,T/C,[8],102 % of control
same,T/C,[20],100 % of control
O=C(O)c1cc(N2CCCC2)ccn1,T/C,[11],96 % of control
same,T/C,[12],101 % of control
CSc1nc(N)nc2nc(C)c(C)cc12,T/C,"dose: 100.0 mg/kg/injection, schedule: Q01DX Z (ip), vehicle: methylcellulose (MC)",90 % of control
same,T/C,"dose: 200.0 mg/kg/injection, schedule: Q01DX Z (ip), vehicle: methylcellulose (MC)",89 % of control
COc1ccccc1-n1c(O)c(N=Nc2ccccc2C)c(=O)n(-c2ccc(Cl)cc2)c1=S,T/C,[16],95 % of control
same,T/C,[17],96 % of control
same,T/C,[18],98 % of control
CCNc1nc2c(=O)[nH]c(N)nc2n1C1OC(CO)C(O)C1O (stereo not given),T/C,[7],107 % of control
same,T/C,[8],96 % of control
same,T/C,[20],107 % of control
COC(=O)c1cc(C(=O)OC)c(C(=O)OC)cc1C(=O)OC,T/C,[9],101 % of control
same,T/C,[10],98 % of control
same,T/C,[19],98 % of control
Cc1c(Br)c(C)c(Br)c(OCC(=O)O)c1Br,T/C,[14],98 % of control
same,T/C,[15],109 % of control
Nc1ncnc2c1ncn2CCCN1C(=O)c2ccccc2C1=O,T/C,"dose: 100.0 mg/kg/injection, schedule: Q04DX003 (ip), vehicle: saline with Tween-80",96 % of control
same,T/C,"dose: 200.0 mg/kg/injection, schedule: Q04DX003 (ip), vehicle: saline with Tween-80",93 % of control
same,T/C,"dose: 400.0 mg/kg/injection, schedule: Q04DX003 (ip), vehicle: saline with Tween-80",89 % of control
CCOC(=O)C(NC(=O)CCl)C(=O)OCC,T/C,[4],91 % of control
same,T/C,[5],94 % of control
same,T/C,[1],100 % of control
same,T/C,[6],91 % of control
same,T/C,[2],91 % of control
Cc1cnc(/C=N/NC(N)=S)cn1,T/C,"dose: 100.0 mg/kg/injection, schedule: Q04DX002 (ip), vehicle: saline",99 % of control
same,T/C,"dose: 200.0 mg/kg/injection, schedule: Q04DX002 (ip), vehicle: saline",96 % of control
same,T/C,"dose: 400.0 mg/kg/injection, schedule: Q04DX002 (ip), vehicle: saline",108 % of control
c1ccc(CNCCNCc2ccccn2)nc1,T/C,"dose: 1.25 mg/kg/injection, schedule: Q04DX002 (ip), vehicle: saline",106 % of control
same,T/C,"dose: 2.5 mg/kg/injection, schedule: Q04DX002 (ip), vehicle: saline",113 % of control
same,T/C,"dose: 5.0 mg/kg/injection, schedule: Q04DX002 (ip), vehicle: saline",106 % of control
same,T/C,"dose: 10.0 mg/kg/injection, schedule: Q04DX002 (ip), vehicle: saline",102 % of control
